This is an account of results in patent publication US10793568B2, “Hormone receptor modulators for treating metabolic conditions and disorders” (ARDELYX, INC., priority 2016, dated 2020).

Assay [1] concerns the target human Farnesoid X receptor ligand-binding domain/Gal4 DNA binding domain chimera (Homo sapiens (Human), UniProt Q96RI1). In words: Cell-based assay of FXR activation (FXR-UAS-bla HEK 293T beta-lactamase reporter). Conditions: cellular FXR beta-lactamase reporter assay; for Emax: HEK-293T, extent of activation relative to GW4064, read-out: % Efficacy; for EC50: FXR-UAS-bla HEK 293T cells, 16 h, pEC50 = -log EC50. How it is done: FXR activation was measured using a cell line and procedure obtained from Life Technologies (Cat # K1691). FXR-UAS-bla HEK 293T cells contain a human Farnesoid X receptor ligand-binding domain/Gal4 DNA binding domain chimera stably integrated into the CellSensor® UAS-bla HEK 293T cell line. The CellSensor® UAS-bla HEK 293T contains a beta-lactamase reporter gene under control of a UAS response element stably integrated into HEK 293T cells. Activation of FXR by bound ligands results in transcriptional activation of the beta-lactamase reporter gene, which is detected via assay of beta-lactamase activity.
Cells are harvested and diluted into assay medium containing phenol red-free DMEM supplemented with 2% Charcoal-stripped FBS, pyruvate, non-essential amino acids. Cells are then transferred to a 384 well assay plate. Test compounds are dissolved in DMSO and a 3-fold serial dilution series is generated, then further diluted into assay medium. Compounds in assay medium are added to cells in the 384 well plate and allowed to incubate 16 h at 37 C in the presence of 5% CO2.
A FRET-based […] is loaded into cells as its acetomethoxy ester. Intracellular esterases liberate free CCF4, a cephalosporin core linking 7-hydroxycoumarin to fluorescein. In the presence of beta-lactamase activity produced in the presence of FXR agonists, cleavage of CCF4 spatially separates the two dyes and disrupts FRET, so that exciting the coumarin at 409 nm now produces a blue fluorescence signal at 447 nm. The change in FRET signal is plotted against the test compound concentration and fit to a 3-parameter logistical equation. The concentration required to produce 50% activation is expressed as pEC50 (−log EC50), and the extent of activation is expressed relative to GW4064 as % activation.
Background: Reporter assays use an easily measured gene product as a stand-in for the process of interest.

The target of assay [2] is ligand binding domain of human FXR (Homo sapiens (Human), UniProt Q96RI1). Put plainly: FXR ligand binding assay (LanthaScreen TR-FRET, SRC2-2 peptide recruitment). Conditions: for pEC50: -log EC50, concentration required to produce 50% activation; for Emax: extent of activation relative to GW4064, read-out: % Efficacy. On the procedure: The affinity of FXR ligands for the ligand binding domain of FXR was determined using a commercially available human FXR ligand binding assay (LanthaScreen, Thermofisher Cat # PV4833). […] Binding of FXR ligands to the FXR ligand binding domain promotes binding of the fluorescein-labelled SRC2-2 peptide. This causes a FRET signal between the terbium-labelled anti-GST antibody and the fluorescein-labelled SRC peptide which are both bound to the FXR ligand binding domain.
Sequence of ligand binding domain of human FXR (Q96RI1 262-486): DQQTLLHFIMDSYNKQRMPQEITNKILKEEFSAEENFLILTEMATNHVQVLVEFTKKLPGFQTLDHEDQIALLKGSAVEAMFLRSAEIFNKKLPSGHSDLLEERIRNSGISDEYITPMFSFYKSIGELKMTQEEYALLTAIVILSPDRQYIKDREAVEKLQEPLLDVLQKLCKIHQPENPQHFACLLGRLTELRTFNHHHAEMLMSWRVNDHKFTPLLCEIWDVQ
Test compounds are dissolved in DMSO and a 3-fold serial dilution series is generated, then further diluted into assay buffer. The compounds are mixed with 5 nM GST-tagged FXR ligand binding domain, 5 nM Tb-labelled anti-GST antibody and 500 nM fluorescein-labelled SRC2-2 peptide in a pH7.4 buffer. The reaction is incubated at room temperature for 1 hour, then the FRET signal is measured as the ratio of the 520 nm/495 nm emission following excitation at 340 nm. The change in FRET signal is plotted against the test article concentration and fit to a 3-parameter logistical equation. The concentration required to produce 50% activation is expressed as pEC50 (−log EC50), and the extent of activation is expressed relative to GW4064 as % activation.

Structures are written as SMILES.

Sequence of human Farnesoid X receptor ligand-binding domain/Gal4 DNA binding domain chimera (Q96RI1 262-486, stated change not applied): as the sequence (Q96RI1 262-486) above
Sequence of human Farnesoid X receptor ligand-binding domain/Gal4 DNA binding domain chimera (P04386 1-147 partner): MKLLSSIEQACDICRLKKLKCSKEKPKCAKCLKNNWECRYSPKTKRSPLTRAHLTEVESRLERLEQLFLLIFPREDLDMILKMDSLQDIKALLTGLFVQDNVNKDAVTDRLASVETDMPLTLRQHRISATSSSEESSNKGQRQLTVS

The EC50 is the concentration that produces a half-maximal response. A low value points to higher potency in that assay. One may read the pEC50 as −log10 of the EC50, conventionally taken in molar units. High values mean a small EC50, low ones a large EC50. In the case of `O=C(O)c1c(F)cc(N2C[C@@H]3C[C@H]2C[C@H]3OCc2c(-c3c(Cl)cccc3Cl)noc2C2CC2)cc1F` [Compound I-104, 4-[(1S,4S,5R)-5-{[5-cyclopropyl-3-(2,6-dichlorophenyl)-1,2-oxazol-4-yl]methoxy}-2-azabicyclo[2.2.1]heptan-2-yl]-2,6-difluorobenzoic Acid], in assay [1], the Emax was 104% and a half-maximal effect (EC50) was put at 3.16 nM. Further, in assay [2], the pEC50 was 9.4 and the Emax was 156%.
On the same counts, the results for `O=C(NCCS(=O)(=O)C1CCOCC1)c1ccc(N2C[C@@H]3C[C@H]2C[C@H]3OCc2c(-c3c(Cl)cccc3Cl)noc2C2CC2)cc1F` [Compound I-172, 4-[(1S,4S,5R)-5-{[5-cyclopropyl-3-(2,6-dichlorophenyl)-1,2-oxazol-4-yl]methoxy}-2-azabicyclo[2.2.1]heptan-2-yl]-2-fluoro-N-[2-(oxane-4-sulfonyl)ethyl]benzamide] are 110%, 1 nM, 8.4 and 160%.
With `O=C(O)c1ccc(N2C[C@@H]3C[C@H]2C[C@H]3OC(=O)c2c(-c3c(Cl)cccc3Cl)noc2C2(F)CC2)c(F)c1` [Compound I-44, 4-[(1S,4S,5R)-5-[3-(2,6-dichlorophenyl)-5-(1-fluorocyclopropyl)-1,2-oxazole-4-carbonyloxy]-2-azabicyclo[2.2.1]heptan-2-yl]-3-fluorobenzoic Acid], in assay [1], the Emax was 107% and it took 10 nM to reach a half-maximal effect (EC50). For the same compound, in assay [2], the pEC50 turned out to be 7.6 and the Emax turned out to be 152%.
Regarding `O=C(NS(=O)(=O)CCC(O)CO)c1ccc(N2C[C@@H]3C[C@H]2C[C@H]3OCc2c(-c3c(Cl)cccc3Cl)noc2C2CC2)cc1` (stereo partly drawn) [Compound I-219, 4-[(1S,4S,5R)-5-{[5-cyclopropyl-3-(2,6-dichlorophenyl)-1,2-oxazol-4-yl]methoxy}-2-azabicyclo[2.2.1]heptan-2-yl]-N-(3,4-dihydroxybutanesulfonyl)benzamide], in assay [1], the Emax is 104% and it took 39.8 nM to reach a half-maximal effect (EC50). Also, in assay [2], the pEC50 is recorded as 8.6 and the Emax amounted to 144%.
On to `Cc1cccc(C)c1-c1noc(C2CC2)c1CO[C@@H]1C[C@@H]2C[C@H]1C(=O)N2c1ccc(C(=O)O)cc1` [Compound I-308, 4-[(1S,4R,5R)-5-{[5-cyclopropyl-3-(2,6-dimethylphenyl)-1,2-oxazol-4-yl]methoxy}-3-oxo-2-azabicyclo[2.2.1]heptan-2-yl]benzoic Acid], for which, in assay [1], the Emax turned out to be 99% and the EC50 is 3.98 nM. In assay [2], the pEC50 is listed as 7.6 and the Emax was 150%.
In the case of `O=C(NS(=O)(=O)CCC1CCOC1)c1ccc(N2C(=O)[C@@H]3C[C@H]2C[C@H]3OCc2c(-c3c(Cl)cccc3Cl)noc2C2CC2)cc1` (stereo partly drawn) [Compound I-342, 4-((1S,4R,5R)-5-((5-cyclopropyl-3-(2,6-dichlorophenyl)isoxazol-4-yl)methoxy)-3-oxo-2-azabicyclo[2.2.1]heptan-2-yl)-N-((2-(tetrahydrofuran-3-yl)ethyl)sulfonyl)benzamide], in assay [1], the Emax came to 125% and the EC50 is 31.6 nM. In assay [2], the pEC50 was found to be 8.6 and the Emax came to 139%.
On to `Cc1cccc(Cl)c1-c1noc(C2CC2)c1CO[C@@H]1C[C@@H]2C[C@H]1CN2c1ccc(CCC(=O)O)cc1F` [Compound I-159, 3-{4-[(1S,4S,5R)-5-{[3-(2-chloro-6-methylphenyl)-5-cyclopropyl-1,2-oxazol-4-yl]methoxy}-2-azabicyclo[2.2.1]heptan-2-yl]-3-fluorophenyl}propanoic Acid], for which, in assay [1], the Emax worked out at 100% and the EC50 is 1.58 nM. In assay [2], the pEC50 is 8.2 and the Emax was 144%.
On the same counts, the results for `CS(=O)(=O)CCNC(=O)c1ccc(N2C[C@@H]3C[C@H]2C[C@H]3OCc2c(-c3c(Cl)cccc3Cl)noc2C2CC2)cc1` [Compound I-169, 4-[(1S,4S,5R)-5-{[5-cyclopropyl-3-(2,6-dichlorophenyl)-1,2-oxazol-4-yl]methoxy}-2-azabicyclo[2.2.1]heptan-2-yl]-N-(2-methanesulfonylethyl)benzamide] are 106%, 1.58 nM, 8.4 and 160%.
Take `N#Cc1cc(N2C[C@@H]3C[C@H]2C[C@H]3OCc2c(-c3c(Cl)cccc3Cl)noc2C2CC2)ccc1C(=O)O` [Compound I-101, 2-Cyano-4-[(1S,4S,5R)-5-{[5-cyclopropyl-3-(2,6-dichlorophenyl)-1,2-oxazol-4-yl]methoxy}-2-azabicyclo[2.2.1]heptan-2-yl]benzoic Acid]: in assay [1], the Emax was found to be 113% and a half-maximal response (EC50) required 1 nM. Moreover, in assay [2], the negative-log EC50 (pEC50) was 9.8 and the Emax came to 137%.
Turning to `O=C(O)C1(c2ccc(N3C[C@@H]4C[C@H]3C[C@H]4OCc3c(-c4c(Cl)cccc4Cl)noc3C3CC3)cc2)CC1` [Compound I-149, 1-{4-[(1S,4S,5R)-5-{[5-cyclopropyl-3-(2,6-dichlorophenyl)-1,2-oxazol-4-yl]methoxy}-2-azabicyclo[2.2.1]heptan-2-yl]phenyl}cyclopropane-1-carboxylic Acid], in assay [1], the Emax was 101% and the EC50 is 63.1 nM. In assay [2], the negative logarithm of the EC50 (pEC50) is 8.2 and the Emax came to 106%.
With `O=C(O)c1ccc(N2C[C@H]3C[C@@H]2C[C@@H]3OCc2c(-c3c(Cl)cccc3Cl)noc2C2CC2)cc1` [Compound I-132], the EC50 in assay [1] was < 316 nM. The Emax in assay [2] worked out at 98%.
On to `C[C@H]1[C@H]2C[C@H](C[C@@H]2OCc2c(-c3c(Cl)cccc3Cl)noc2C2CC2)N1c1ccc(C(=O)O)cc1F` [Compound I-364, 4-[(1R,3S,4R,5S)-5-{[5-cyclopropyl-3-(2,6-dichlorophenyl)-1,2-oxazol-4-yl]methoxy}-3-methyl-2-azabicyclo[2.2.1]heptan-2-yl]-3-fluorobenzoic Acid], for which, in assay [2], the pEC50 amounted to 6.3 and the Emax came out at 47%.
Consider `C[C@@H]1[C@@H]2C[C@@H](C[C@H]2OCc2c(-c3c(Cl)cccc3Cl)noc2C2CC2)N1c1ccc(C(=O)NS(=O)(=O)C2CCOCC2)cn1` [Compound I-373, 6-[(1S,3R,4S,5R)-5-[[5-cyclopropyl-3-(2,6-dichlorophenyl)-1,2-oxazol-4-yl]methoxy]-3-methyl-2-azabicyclo[2.2.1]heptan-2-yl]-N-(oxane-4-sulfonyl)pyridine-3-carboxamide], for which, in assay [2], the negative-log EC50 (pEC50) is given as 7.2 and the Emax is 62%.
Take `C[C@@H]1[C@@H]2C[C@@H](C[C@H]2OCc2c(-c3c(Cl)cccc3Cl)noc2C2CC2)N1c1ccc(C(=O)O)cn1` [Compound I-369, 6-[(1S,3R,4S,5R)-5-[[5-cyclopropyl-3-(2,6-dichlorophenyl)-1,2-oxazol-4-yl]methoxy]-3-methyl-2-azabicyclo[2.2.1]heptan-2-yl]pyridine-3-carboxylic acid]: in assay [2], the pEC50 came to 6.8 and the Emax came out at 50%.
Regarding `O=C(O)c1ccc(N2C(=O)[C@@H]3C[C@H]2C[C@H]3OCc2c(-c3c(Cl)cccc3Cl)noc2C2CC2)cn1` [Compound I-321, 5-[(1S,4R,5R)-5-{[5-cyclopropyl-3-(2,6-dichlorophenyl)-1,2-oxazol-4-yl]methoxy}-3-oxo-2-azabicyclo[2.2.1]heptan-2-yl]pyridine-2-carboxylic Acid], in assay [2], the pEC50 came out at 7.6 and the Emax came to 146%.
For `C[C@H]1[C@H]2C[C@H](C[C@@H]2OCc2c(-c3c(Cl)cccc3Cl)noc2C2CC2)N1c1ccc(C(=O)NS(=O)(=O)C2CCOCC2)nc1` [Compound I-372, 5-[(1R,3S,4R,5S)-5-[[5-cyclopropyl-3-(2,6-dichlorophenyl)-1,2-oxazol-4-yl]methoxy]-3-methyl-2-azabicyclo[2.2.1]heptan-2-yl]-N-(oxane-4-sulfonyl)pyridine-2-carboxamide], in assay [2], the pEC50 was found to be 6.1 and the Emax turned out to be 22%.
